The subject of experiment [1] is dog saphenous veins. As to the kind of experiment: In vitro study on dog saphenous veins (contraction). The format is cell-based, dog (mongrel). Conditions: Canis lupus familiaris, dog saphenous vein rings; for EC50: 37C, cumulative doses; for Emax: relative to maximum effect of 100 mM KCl, read-out: VEIN Max. As to the method: (§1) In vitro study on dog femorai arteries and saphenous veins
(§2) The technique used is based on that described by FOWLER et al., (J. Pharmacol. Exp. Ther., 229, 712-718, 1984). Male or female mongrel dogs weighing approximately 15-25 kg were used as a source of organs. The animals are anesthetized with pentobarbital (30 mg/kg intravenously). The legs are incised and the vessels removed. They are placed in Krebs-Ringer fluid (118 mM NaCl; 25 mM NaHCO3; 10mM glucose; 4.7 mM KCl; 1.25 mM CaCl2; 1.19 mM MgSO4; 1.14 mM KH2 PO4) at room temperature and a stream of carbogen (95% O2, 5% CO2) is bubbled through. The fat is then carefully removed from these vessels, which are thereafter cut into rings 2 mm wide and mounted under a baseline tension of 4 g (femoral arteries) or 1 g (saphenous veins) in tanks thermostated at 37C containing Krebs-Ringer fluid with a stream of carbogen constantly bubbled through. A lower hook constitutes the fixed point, while the upper hook is connected to an isometric force gauge. The variations in tension are digitized, stored on disk and processed by a computer system. After mounting, the organs are left undisturbed for 90 minutes, rinsing being performed every 30 min. After readjustment of the baseline tension, a contraction is induced with a single dose of KCl (100 mM). After stabilization, washing and return to the baseline, a contraction is induced by a single dose of phenylephrine (submaximal concentrations) in order to regularize the following contractions. After washing and return to the baseline, an effect/concentration curve is plotted by adding cumulative doses of agonist (the spacing between the doses is on a semilogarithmic scale). This experiment enables the 50% effective concentration (EC50) to be calculated in the following manner: the tension values are first converted to percentages relative to the maximum effect produced by 100 mM KCl. This EC50 is determined by nonlinear regression by the SIMPLEX method (M. S. CACECI, Byte, 340-362, 1984), calculated according to the L. MICHAELIS and M. L. MENTEN model of the law of mass action (Blochem. Zeitschrift, 49, 333-369, 1913). E=(Emax*C^n)(EC^n +C^n) with E=effects; Emax=maximum effect; C=concentration; EC=EC50; n=HILL's number

For experiment [2], the system named is dog femoral arteries. As to the kind of experiment: In vitro study on dog femoral arteries (contraction). The settings on record: Canis lupus familiaris, dog femoral artery rings; for EC50: 37C, cumulative doses; for Emax: relative to maximum effect of 100 mM KCl, read-out: ARTERY Max. The format is cell-based, dog (mongrel). The procedure:
as §1, §2

In experiment [3] the test system is alpha2-adrenergic. As to the kind of experiment: In vivo study in pithed rats, pretreatment with yohimbine (alpha2-adrenergic component). More on the design: species or system rat (Sprague-Dawley). Conditions: yohimbine (1 mg/kg) pretreatment. From the text:
(§3) In vivo study in PITBED RATS
(§4) Male Sprague-Dawley rats (300-400 g) are anesthetized with ether. The trachea is canulated, the spinal cord is destroyed by means of a steel rod and the animal is immediately placed under artificial respiration. The vagal nerves are sectioned. The carotid arteries are ligated; a catheter is placed in one and is used to record blood pressure. A further three catheters are placed in the jugular veins and the veins of the penis and are used for injections. The animals'temperature is maintained at 36° C. The animal is pretreated by an injection of tertatolol ([…]). The animal is also pretreated 10 minutes later with prazosin ([…]) or yohimbine (1 mg/kg) when it is desired to determine the alpha1 --or alpha2 -adrenergic properties of the product. Ten minutes later, increasing cumulative doses of the product are injected every 20 seconds. Variations in blood pressure are detected using a Statham P23XL pressure cell and are recorded. The pressure values are expressed in mmHg. This experiment enables the concentration that increases the pressure by 20 mm Hg (C2.sbsb.0) to be calculated by non-linear regression according to the Michaelis and Menten model of the law of mass action, as described above. The maximum effect obtained is then converted to a percentage relative to the maximum effect produced by phenylephrine. The alpha1 - or alpha2 -adrenergic components of the product are assessed by means of the ratio of the C2.sbsb.0 values obtained in the presence of prazosin or yohimbine to the values obtained in the absence of these antagonists. In pithed rats, the products of the invention produce prazosin- and yohimbine-sensitive hypertension.

In experiment [4] the test system is pithed rats. Briefly: In vivo study in pithed rats, blood pressure. More on the design: species or system rat (Sprague-Dawley). The settings on record: Rattus norvegicus, iv, tertatolol pretreated, without prazosin or yohimbine, read-out: C20 Control (concentration that increases the pressure by 20 mm Hg).
Source text: as §3, §4

In experiment [5] the test system is carotid blood flow. As to the kind of experiment: In vivo study of carotid blood flow in anesthetized dogs. The settings on record: i.v., n-6. More on the design: species or system dog; dose or concentration left out as unconfirmed. The procedure:
In vivo study of carotid blood flow in anesthetized dogs
Dogs (12-18kg) are anesthetized with pentobarbital (30mg/kg i.v.). Anesthesia is then maintained by a perfusion of 0.8 ml/h of 6% pentobarbital. The animals are placed under assisted respiration and their temperature is maintained at 37C (Harvard thermostated blanket). Blood pressure and heart rate are measured by means of a Millar probe in the fernoral artery or brachial artery, via a transducer and a Gould biotach. The blood flow in the carotid arteries is recorded by means of a Gould SP2202 electromagnetic flow meter.

Where a name gives a salt, the structure may show the parent alone.

Broadly, the EC50 is the concentration that produces a half-maximal response. `C1=NC2(CCc3ccccc3C2)CN1` (centres unmarked) [Example 1, Spiro[(1,3-diaza-1-cyclopentene)-5,2'-(1',2',3',4'-tetrahydronaphthalene)]benzenesulfonate]: in experiment [1], the concentration for a half-maximal effect (EC50) is 1300 nM and the Emax was 98%. Moreover, in experiment [2], the response was half-maximal at 5.9 µM (EC50) and the Emax amounted to 19%. In addition, the “Ratio C20 treated/C20 control, Yohimbine” value in experiment [3] is listed as 4.7. In addition, in experiment [4], the ED (20 mm Hg) worked out at 0.004 mg/kg.

For the compound `COc1cc2c(cc1O)CCC1(CNC=N1)C2` (centres unmarked) [Example 3, Spiro[(1,3-diaza-1-cyciopentene)-5,2'-(6'-hydroxy-7'-methoxy-1',2',3',4'-tetrahydronaphthalene)]fumarate], in experiment [3], the “Ratio C20 treated/C20 control, Yohimbine” value was 2.9. In experiment [4], the ED (20 mm Hg) was found to be 0.0009 mg/kg.

As to `CC(C)Oc1ccc2c(c1)CCC1(CNC=N1)C2` (centres unmarked) [Example 5, Spiro[(1,3-diaza-1-cyclopentene)-5,2'-(6'-isopropyloxy-1',2',3',440-tetrahydronaphthalene)]fumarate], the “Ratio C20 treated/C20 control, Yohimbine” value in experiment [3] came out at 66. In experiment [4], the ED (20 mm Hg) amounted to 0.068 mg/kg.

For the compound `COc1ccc2c(c1OC)CCC1(CNC=N1)C2` (centres unmarked) [Example 7, Spiro[(1,3-diaza-1-cyclopentene)-5,2'-(5',6'-dimethoxy-1',2',3',4'-tetrahydronaphthalene)]fumarate], in experiment [3], the “Ratio C20 treated/C20 control, Yohimbine” value amounted to 2.4. Moreover, the ED (20 mm Hg) in experiment [4] turned out to be 0.137 mg/kg.

Consider `Cc1ccc2c(c1)CCC1(CNC=N1)C2` (centres unmarked) [Example 8, Spiro[(1,3-diaza-1-cyclopentene)-5,2'-(6'-methyl-1',2',3',4'-tetrahydronaphthalene)]fumarate], for which, in experiment [1], the concentration giving a half-maximal response (EC50) came to 2100 nM and the Emax was 44%. For the same compound, in experiment [2], the EC50 was 13 µM and the Emax is 12%.

With `COc1cc(C)cc2c1CCC1(CNC=N1)C2` (centres unmarked) [Example 9, Spiro[(1,3-diaza-1-cyciopentene)-5,2'-(5'-methoxy-7'-methyl-1',2',3',4'-tetrahydronaphthalene) ]fumarate], the EC50 in experiment [1] is 3900 nM; in experiment [2], 0.8 µM. Also, the Emax in experiment [1] amounted to 81%; in experiment [2], 60%.

For the compound `Clc1cc(Cl)c2c(c1)CC1(CC2)CNC=N1` (centres unmarked) [Example 17, Spiro[(1,3-diaza-1-cyclopentene)-5,2'-(5',7'-dichloro-1',2',3',4'-tetrahydronaphthalene)]fumarate], in experiment [1], a half-maximal response (EC50) required 1900 nM and the Emax was 44%. In addition, in experiment [2], the EC50 came to 24 µM and the Emax was found to be 10%.

On to `Cc1ccc2c(c1)CC1(CC2)CNC=N1` (centres unmarked) [Example 24, Spiro[(1,3-diaza-1-cyclopentene)-5,2'-(7'-methyl-1',2',3',4'-tetrahydronaphthalene)]fumarate], for which, in experiment [1], the midpoint of the response, the EC50, lay at 160 nM and the Emax turned out to be 57%. In experiment [2], a half-maximal response (EC50) required 70 µM and the Emax was determined as 8%. In addition, the “Ratio C20 treated/C20 control, Yohimbine” value in experiment [3] is 1.5. The ED (20 mm Hg) in experiment [4] turned out to be 0.03 mg/kg.

In the case of `C1=NC2(CN1)Cc1cccc3cccc(c13)C2` [Example 31, Spiro[(1,3-diaza-1-cyclopentene)-5,2'-(2,3'-dihydrophenalene)] 1/2 fumarate], in experiment [1], the midpoint of the response, the EC50, lay at 1600 nM and the Emax stood at 44%. In experiment [2], the EC50 came out at 0.5 µM and the Emax came out at 10%.

For `Cc1ccc2c(c1)C[C@@]1(CC2)CNC=N1` [Example 46, (S)-Spiro[(1,3-diaza-1-cyclopentene)-5,2'-(7'-methyl-1',2',3',4'-tetrahydronaphthalene)]fumarate], in experiment [1], the response was half-maximal at 1860 nM (EC50) and the Emax worked out at 48%. For the same compound, in experiment [2], the half-maximal effective concentration (EC50) came out at 15 µM and the Emax stood at 36%. In experiment [3], the “Ratio C20 treated/C20 control, Yohimbine” value was 3.4. The ED (20 mm Hg) in experiment [4] is 0.0068 mg/kg. Besides, the “fall in carotid blood flow” value in experiment [5] is 62±4%.

The record behind these values is patent US5436261A, “Benzospiroalkene heterocyclic compounds” (Adir et Compagnie, priority 1993, dated 1995).
